US9040545B2, “Heterocyclyl pyrazolopyrimidine analogues as selective JAK inhibitors” (Cellzome Limited, priority 2010, dated 2015)

How the values were obtained:
[1] = target: T1, JAK2 (Homo sapiens, UniProt O60674); experiment: Kinobeads assay, JAK2; type: binding; settings: mixed Molt4/Ramos lysate, read-out: Inhibition values (IC50) JAK2
T1 construct: endogenous in cells; host or cells: mixed Molt4/Ramos lysate (1:2)
Method: (§1) The compounds of the present invention as described in the previous examples were tested in a Kinobeads™ assay as described for ZAP-70 (WO-A 2007/137867). Briefly, test compounds (at various concentrations) and the affinity matrix with the immobilized aminopyrido-pyrimidine ligand 24 were added to cell lysate aliquots and allowed to bind to the proteins in the lysate sample. After the incubation time the beads with captured proteins were separated from the lysate. Bound proteins were then eluted and the presence of JAK2 and JAK3 was detected and quantified using specific antibodies in a dot blot procedure and the Odyssey infrared detection system. Dose response curves for individual kinases were generated and IC50 values calculated. Kinobeads™ assays for ZAP-70 (WO-A 2007/137867) and for kinase selectivity profiling (WO-A 2006/134056) have been previously described.
(§2) The affinity matrix was washed two times with 15 mL of 1×DP buffer containing 0.2% NP40 (IGEPAL® CA-630, Sigma, #I3021) and then resuspended in 1×DP buffer containing 0.2% NP40 (3% beads slurry).
(§3) 5×DP buffer 250 mM Tris-HCl pH 7.4, 25% Glycerol, 7.5 mM MgCl2, 750 mM NaCl, 5 mM Na3VO4; filter the 5×DP buffer through a 0.22 μm filter and store in aliquots at −80° C. The 5×DP buffer is diluted with H2O to 1×DP buffer containing 1 mM DTT and 25 mM NaF.
(§4) Stock solutions of test compounds were prepared in DMSO. In a 96 well plate 30 μL solution of diluted test compounds at 5 mM in DMSO were prepared. Starting with this solution a 1:3 dilution series (9 steps) was prepared. For control experiments (no test compound) a buffer containing 2% DMSO was used.
Molt4 cells (ATCC catalogue number CRL-1582) and Ramos cells (ATCC catalogue number CRL-1596) were grown in 1 L Spinner flasks (Integra Biosciences, #182101) in suspension in RPMI 1640 medium (Invitrogen, #21875-034) supplemented with 10% Fetal Bovine Serum (Invitrogen) at a density between 0.15×106 and 1.2×10^6 cells/mL. Cells were harvested by centrifugation, washed once with 1×PBS buffer (Invitrogen, #14190-094) and cell pellets were frozen in liquid nitrogen and subsequently stored at −80° C. Cells were homogenized in a Potter S homogenizer in lysis buffer: 50 mM Tris-HCl, 0.8% NP40, 5% glycerol, 150 mM NaCl, 1.5 mM MgCl2, 25 mM NaF, 1 mM sodium vanadate, 1 mM DTT, pH 7.5. One complete EDTA-free tablet (protease inhibitor cocktail, Roche Diagnostics, 1873580) per 25 mL buffer was added. The material was dounced 10 times using a mechanized POTTER S, transferred to 50 mL falcon tubes, incubated for 30 minutes on ice and spun down for 10 minutes at 20,000 g at 4° C. (10,000 rpm in Sorvall SLA600, precooled). The supernatant was transferred to an ultracentrifuge (UZ)-polycarbonate tube (Beckmann, 355654) and spun for 1 hour at 100,000 g at 4° C. (33.500 rpm in Ti50.2, precooled). The supernatant was transferred again to a fresh 50 mL falcon tube, the protein concentration was determined by a Bradford assay (BioRad) and samples containing 50 mg of protein per aliquot were prepared. The samples were immediately used for experiments or frozen in liquid nitrogen and stored frozen at −80° C.
(§5) Cell lysate (approximately 50 mg protein per plate) was thawed in a water bath at room temperature and then stored on ice. To the thawed cell lysate 1×DP 0.8% NP40 buffer containing protease inhibitors (1 tablet for 25 mL buffer; EDTA-free protease inhibitor cocktail; Roche Diagnostics 1873580) was added in order to reach a final protein concentration of 10 mg/mL total protein. The diluted cell lysate was stored on ice. Mixed Molt4/Ramos lysate was prepared by combining one volume of Molt4 lysate and two volumes of Ramos lysate (ratio 1:2).
To a 96 well filter plate (Multiscreen HTS, BV Filter Plates, Millipore #MSBVN1250) were added per well: 100 μL affinity matrix (3% beads slurry), 3 μL of compound solution, and 50 μL of diluted lysate. […]

[2] = target: T2, Aurora B (Homo sapiens, UniProt Q96GD4); experiment: Kinobeads assay, Aurora B; type: binding; settings: for IC50: lysate of pervanadate-treated Jurkat cells, read-out: Inhibition values (IC50) Aur B
T2 construct: cell lysates from Jurkat cells (ATCC TIB-152) used; endogenous in cells; host or cells: Jurkat cells (ATCC TIB-152), treated with pervanadate
Method: as §1, §2, §3, §4, §5
To a 96 well filter plate (Multiscreen HTS, BV Filter Plates, Millipore #MSBVN1250) were added per well: 100 μL affinity matrix (3% beads slurry), 3 μL of compound solution, and 50 μL of diluted lysate. Plates were sealed and incubated for 3 hours in a cold room on a plate shaker (Heidolph tiramax 1000) at 750 rpm. Afterwards the plate was washed 3 times with 230 μL washing buffer (1×DP 0.4% NP40). The filter plate was placed on top of a collection 1 plate (Greiner bio-one, PP-microplate 96 well V-shape, 65120) and the beads were then eluted with 20 μL of sample buffer (100 mM Tris, pH 7.4, 4% SDS, 0.00025% bromophenol blue, 20% glycerol, 50 mM DTT). The eluate was frozen quickly at −80° C. and stored at −20° C.
The kinases in the eluates were detected and quantified by spotting on nitrocellulose membranes and using a first antibody directed against the kinase of interest and a fluorescently labelled secondary antibody (anti-rabbit IRDye™ antibody 800 (Licor, #926-32211). The Odyssey Infrared Imaging system from LI-COR Biosciences (Lincoln, Nebr., USA) was operated according to instructions provided by the manufacturer (Schutz-Geschwendener et al, 2004. Quantitative, two-color Western blot detection with infrared fluorescence. Published May 2004 by LI-COR Biosciences, www.licor.com).
After spotting of the eluates the nitrocellulose membrane (BioTrace NT; PALL, #BTNT30R) was first blocked by incubation with Odyssey blocking buffer (LICOR, 927-40000) for 1 hour at room temperature. Blocked membranes were then incubated for 16 hours at the temperature shown in Table 5 with the first antibody diluted in Odyssey blocking buffer (LICOR #927-40000). Afterwards the membrane was washed twice for 10 minutes with PBS buffer containing 0.2% Tween 20 at room temperature. […]

T1 sequence (O60674 whole entry): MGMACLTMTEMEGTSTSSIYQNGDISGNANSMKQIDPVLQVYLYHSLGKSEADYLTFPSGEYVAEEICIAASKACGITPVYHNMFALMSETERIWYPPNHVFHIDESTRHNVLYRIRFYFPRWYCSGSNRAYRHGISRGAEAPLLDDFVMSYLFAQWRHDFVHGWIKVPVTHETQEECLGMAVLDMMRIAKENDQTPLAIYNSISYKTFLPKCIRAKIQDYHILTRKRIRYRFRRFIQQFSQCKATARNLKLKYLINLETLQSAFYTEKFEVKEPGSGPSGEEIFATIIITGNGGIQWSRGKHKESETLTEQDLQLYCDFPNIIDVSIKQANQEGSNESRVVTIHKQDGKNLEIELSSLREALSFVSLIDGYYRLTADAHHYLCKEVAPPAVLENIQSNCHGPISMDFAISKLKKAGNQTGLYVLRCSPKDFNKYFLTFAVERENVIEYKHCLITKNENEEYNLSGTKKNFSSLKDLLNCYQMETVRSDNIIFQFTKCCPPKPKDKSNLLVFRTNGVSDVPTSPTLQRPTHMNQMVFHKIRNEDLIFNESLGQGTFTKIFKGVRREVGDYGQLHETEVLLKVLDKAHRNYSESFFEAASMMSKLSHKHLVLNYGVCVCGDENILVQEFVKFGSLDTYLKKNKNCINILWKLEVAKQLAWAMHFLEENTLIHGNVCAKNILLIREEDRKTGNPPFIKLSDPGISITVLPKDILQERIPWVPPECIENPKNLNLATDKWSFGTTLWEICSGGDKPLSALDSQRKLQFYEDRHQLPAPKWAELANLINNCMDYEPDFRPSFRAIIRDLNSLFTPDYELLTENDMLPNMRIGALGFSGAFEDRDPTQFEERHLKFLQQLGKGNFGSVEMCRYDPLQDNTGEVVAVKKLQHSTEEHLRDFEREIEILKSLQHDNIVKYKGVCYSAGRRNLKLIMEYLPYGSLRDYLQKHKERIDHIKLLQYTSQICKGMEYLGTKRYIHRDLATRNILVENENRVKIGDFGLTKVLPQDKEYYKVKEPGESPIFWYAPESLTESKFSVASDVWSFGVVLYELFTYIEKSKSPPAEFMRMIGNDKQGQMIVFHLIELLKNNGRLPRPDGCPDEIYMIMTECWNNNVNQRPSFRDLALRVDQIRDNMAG
T2 sequence (Q96GD4 whole entry): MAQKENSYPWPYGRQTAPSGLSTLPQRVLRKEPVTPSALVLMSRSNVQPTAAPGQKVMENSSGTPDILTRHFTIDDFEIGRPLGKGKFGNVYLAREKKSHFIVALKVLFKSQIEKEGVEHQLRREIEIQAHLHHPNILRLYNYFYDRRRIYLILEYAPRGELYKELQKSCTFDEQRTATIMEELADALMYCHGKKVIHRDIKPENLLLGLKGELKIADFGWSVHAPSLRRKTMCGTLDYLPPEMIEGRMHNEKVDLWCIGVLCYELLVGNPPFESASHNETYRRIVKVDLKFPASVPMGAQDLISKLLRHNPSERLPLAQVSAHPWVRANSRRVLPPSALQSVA

Row | Compound | IC50 [1] [µM] | JAK3/AurB Fold Selectivity [2] | IC50 [2] [µM]
1 | C[C@@H]1COCCN1c1cccc(Cn2ncc3cnc(Nc4cnn(C)c4)nc32)n1 [Example 1, (R)—N-(1-Methyl-1H-pyrazol-4-yl)-1-((6-(3-methylmorpholino)pyridin-2-yl)methyl)-1H-pyrazolo[3,4-d]pyrimidin-6-amine] | ≥ 10 | 10-50 Fold | 1 to 10
2 | Cn1cc(Nc2ncc3cnn(Cc4cccc(N5CCOCC5)c4)c3n2)cn1 [Example 2, N-(1-Methyl-1H-pyrazol-4-yl)-1-(3-morpholinobenzyl)-1H-pyrazolo[3,4-d]pyrimidin-6-amine] | 1 to 10 | >50 Fold | 1 to 10
3 | Cn1cc(Nc2ncc3cnn(Cc4cccc(N5CCOCC5)n4)c3n2)cn1 [Example 3, N-(1-Methyl-1H-pyrazol-4-yl)-1-((6-morpholinopyridin-2-yl)methyl)-1H-pyrazolo[3,4-d]pyrimidin-6-amine] | ≥ 10 | 10-50 Fold | 0.1 to 1
4 | CN(C)CCCn1cc(Nc2ncc3cnn(Cc4cccc(N5CCOCC5)c4)c3n2)cn1 [Example 4, N-(1-(3-(Dimethylamino)propyl)-1H-pyrazol-4-yl)-1-(3-morpholinobenzyl)-1H-pyrazolo[3,4-d]pyrimidin-6-amine] | 1 to 10 | >50 Fold | 0.1 to 1
5 | OCCn1cc(Nc2ncc3cnn(Cc4cccc(N5CCOCC5)c4)c3n2)cn1 [Example 5, 2-(4-((1-(3-Morpholinobenzyl)-1H-pyrazolo[3,4-d]pyrimidin-6-yl)amino)-1H-pyrazol-1-yl)ethanol] | ≥ 10 | >50 Fold | 0.1 to 1
6 | Cn1cc(Nc2ncc3cnn(Cc4cccc(C(=O)N5CCOCC5)c4)c3n2)cn1 [Example 6, (3-((6-((1-Methyl-1H-pyrazol-4-yl)amino)-1H-pyrazolo[3,4-d]pyrimidin-1-yl)methyl)phenyl)(morpholino)methanone] | ≥ 10 | >50 Fold | 1 to 10
7 | Cn1cc(Nc2ncc3cnn(Cc4cccc(CN5CCOCC5)c4)c3n2)cn1 [Example 7, N-(1-Methyl-1H-pyrazol-4-yl)-1-(3-(morpholinomethyl)benzyl)-1H-pyrazolo[3,4-d]pyrimidin-6-amine] | ≥ 10 | 10-50 Fold | 0.1 to 1
8 | Cn1cc(Nc2ncc3cnn(Cc4cccc(N5CCCCC5)c4)c3n2)cn1 [Example 8, N-(1-Methyl-1H-pyrazol-4-yl)-1-(3-(piperidin-1-yl)benzyl)-1H-pyrazolo[3,4-d]pyrimidin-6-amine] | ≥ 10 | 10-50 Fold | 1 to 10
9 | Cn1cc(Nc2ncc3cnn(Cc4cccc(C5CCOCC5)c4)c3n2)cn1 [Example 9, N-(1-Methyl-1H-pyrazol-4-yl)-1-(3-(tetrahydro-2H-pyran-4-yl)benzyl)-1H-pyrazolo[3,4-d]pyrimidin-6-amine] | ≥ 10 | 10-50 Fold | 0.1 to 1
10 | CN1CCN(c2cccc(Cn3ncc4cnc(Nc5cnn(C)c5)nc43)c2)CC1 [Example 10, N-(1-Methyl-1H-pyrazol-4-yl)-1-(3-(4-methylpiperazin-1-yl)benzyl)-1H-pyrazolo[3,4-d]pyrimidin-6-amine] | ≥ 10 | 10-50 Fold | 0.1 to 1
11 | Cc1c(Cn2ncc3cnc(Nc4cnn(C)c4)nc32)cccc1N1CCOCC1 [Example 11, N-(1-Methyl-1H-pyrazol-4-yl)-1-(2-methyl-3-morpholinobenzyl)-1H-pyrazolo[3,4-d]pyrimidin-6-amine] | ≥ 10 | 10-50 Fold | 0.1 to 1
12 | CNC(=O)Cn1cc(Nc2ncc3cnn(Cc4cccc(N5CCOCC5)c4)c3n2)cn1 [Example 12, N-Methyl-2-(4-((1-(3-morpholinobenzyl)-1H-pyrazolo[3,4-d]pyrimidin-6-yl)amino)-1H-pyrazol-1-yl)acetamide] | ≥ 10 | 10-50 Fold | 0.1 to 1
13 | CCOC(=O)C1CCCN(c2cccc(Cn3ncc4cnc(Nc5cnn(C)c5)nc43)c2)C1 (stereo not drawn) [Example 13, Ethyl 1-(3-((6-((1-methyl-1H-pyrazol-4-yl)amino)-1H-pyrazolo[3,4-d]pyrimidin-1-yl)methyl)phenyl)piperidine-3-carboxylate] | ≥ 10 | 10-50 Fold | ≥ 10
14 | NC(=O)CCn1cc(Nc2ncc3cnn(Cc4cccc(N5CCOCC5)c4)c3n2)cn1 [Example 14, 3-(4-((1-(3-Morpholinobenzyl)-1H-pyrazolo[3,4-d]pyrimidin-6-yl)amino)-1H-pyrazol-1-yl)propanamide] | ≥ 10 | 10-50 Fold | 0.1 to 1
15 | Cn1cc(Nc2ncc3cnn(Cc4cc(N5CCOCC5)ccc4F)c3n2)cn1 [Example 15, 1-(2-Fluoro-5-morpholinobenzyl)-N-(1-methyl-1H-pyrazol-4-yl)-1H-pyrazolo[3,4-d]pyrimidin-6-amine] | ≥ 10 | 10-50 Fold | 1 to 10
16 | CN(C)C(=O)CCn1cc(Nc2ncc3cnn(Cc4cccc(N5CCOCC5)c4)c3n2)cn1 [Example 16, N,N-Dimethyl-3-(4-((1-(3-morpholinobenzyl)-1H-pyrazolo[3,4-d]pyrimidin-6-yl)amino)-1H-pyrazol-1-yl)propanamide] | 1 to 10 | 10-50 Fold | 0.1 to 1
17 | Cn1cc(Nc2ncc3cnn(Cc4c(F)c(F)cc(N5CCOCC5)c4F)c3n2)cn1 [Example 17, N-(1-Methyl-1H-pyrazol-4-yl)-1-(2,3,6-trifluoro-5-morpholinobenzyl)-1H-pyrazolo[3,4-d]pyrimidin-6-amine] | 1 to 10 | 10-50 Fold | 0.1 to 1
